Experimental data: patent US10765114B2, “4-amino-6-(pyridyl and 2-substitutedphenyl)-picolinates and 6-amino-2-(pyridyl and 2-substitutedphenyl)-pyrimidine-4-carboxylates and their use as herbicides” (Dow AgroSciences LLC, priority 2013, dated 2020)
Like-named read-outs stand apart in the source and are kept apart here.

What was measured:
[1] = test system: Key Grass and Sedge Weeds as well as Grass Crops; test: Post-Emergent Test II (Table 6); assay type: in vivo; conditions: post-emergence, 336 h, 14 days after application; for pest or weed control at 70 g/ha: 70 g ai/ha; for pest or weed control at 140 g/ha: 140 g ai/ha
Outline: (§1)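 Growth stage at treatment: first or second true leaf. Application: compound in acetone/DMSO diluted into an adjuvant-containing aqueous mix, sprayed at 187 L/ha at several rates. Assessment: visual 0-100% injury at 14 days against untreated plants.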

[2] = test system: Key Broadleaf Weed and Crop Species; test: Post-Emergent Test II (Table 5); assay type: in vivo; conditions: post-emergence, 336 h; for pest or weed control at 70 g/ha: application rate 70 (kg ai/ha; footnote: g ai/ha); for pest or weed control at 140 g/ha: application rate 140 (kg ai/ha; footnote: g ai/ha)
Outline: as §1

[3] = CYPSS, read-out: Visual Growth Reduction (%) 14 Days After Application CYPSS
[4] = DIGSA: crabgrass (Digitaria sanguinalis), read-out: Visual Growth Reduction (%) 14 Days After Application DIGSA
[5] = ECHSS, read-out: Visual Growth Reduction (%) 14 Days After Application ECHSS
[6] = ORYSS (crop), read-out: Visual Growth Reduction (%) 14 Days After Application ORYSS
[7] = SETFA: giant foxtail (Setaria faberi), read-out: Visual Growth Reduction (%) 14 Days After Application SETFA
[8] = SORVU: grain sorghum (Sorghum vulgare), read-out: Visual Growth Reduction (%) 14 Days After Application SORVU
[9] = TRZSS (crop), read-out: Visual Growth Reduction (%) 14 Days After Application TRZSS
[10] = ZEAMX: maize, corn (Zea mays), read-out: Visual Growth Reduction (%) 14 Days After Application ZEAMX
[11] = Abutilon theophrasti, ABUTH: velvetleaf (Abutilon theophrasti), read-out: Visual Growth Reduction (%) 14 Days After Application ABUTH
[12] = Amaranthus retroflexus, AMARE: redroot pigweed (Amaranthus retroflexus), read-out: Visual Growth Reduction (%) 14 Days After Application AMARE
[13] = Brassica napus, BRSSS: oilseed rape, canola (Brassica napus), read-out: Visual Growth Reduction (%) 14 Days After Application BRSSS
[14] = Chenopodium album, CHEAL: lambsquarters (Chenopodium album), read-out: Visual Growth Reduction (%) 14 Days After Application CHEAL
[15] = Euphorbia heterophylla, EPHHL: wild poinsettia (Euphorbia heterophylla), read-out: Visual Growth Reduction (%) 14 Days After Application EPHHL
[16] = Helianthus annuus, HELAN: sunflower (Helianthus annuus), read-out: Visual Growth Reduction (%) 14 Days After Application HELAN
[17] = Viola tricolor, VIOTR: wild pansy (Viola tricolor), read-out: Visual Growth Reduction (%) 14 Days After Application VIOTR

Row | SMILES | pest or weed control at 70 g/ha [1, 3] [%] | pest or weed control at 140 g/ha [1, 3] [%] | pest or weed control at 70 g/ha [1, 4] [%] | pest or weed control at 140 g/ha [1, 4] [%] | pest or weed control at 70 g/ha [1, 5] [%] | pest or weed control at 140 g/ha [1, 5] [%] | pest or weed control at 70 g/ha [1, 6] [%] | pest or weed control at 140 g/ha [1, 6] [%] | pest or weed control at 70 g/ha [1, 7] [%] | pest or weed control at 140 g/ha [1, 7] [%] | pest or weed control at 70 g/ha [1, 8] [%] | pest or weed control at 140 g/ha [1, 8] [%] | pest or weed control at 70 g/ha [1, 9] [%] | pest or weed control at 140 g/ha [1, 9] [%] | pest or weed control at 70 g/ha [1, 10] [%] | pest or weed control at 140 g/ha [1, 10] [%] | pest or weed control at 70 g/ha [2, 11] [%] | pest or weed control at 140 g/ha [2, 11] [%] | pest or weed control at 70 g/ha [2, 12] [%] | pest or weed control at 140 g/ha [2, 12] [%] | also measured
1 | Nc1cc(-c2ccc(Cl)c(F)c2CF)nc(C(=O)O)c1Cl [Compound 80, 4-Amino-3-chloro-6-(4-chloro-3-fluoro-2-(fluoromethyl)phenyl)picolinic acid] | 0 to 29 | 0 to 29 | 0 to 29 | 0 to 29 | 0 to 29 | 0 to 29 | 0 to 29 | 0 to 29 | 0 to 29 | 0 to 29 | 0 to 29 | 0 to 29 | 0 to 29 | 0 to 29 | 0 to 29 | 0 to 29 | 75 to 84 | 75 to 84 | 95 to 100 | 95 to 100 | pest or weed control at 70 g/ha [2, 13]: 95 to 100%; pest or weed control at 140 g/ha [2, 13]: 95 to 100%; pest or weed control at 70 g/ha [2, 14]: 95 to 100%; pest or weed control at 140 g/ha [2, 14]: 95 to 100%; pest or weed control at 70 g/ha [2, 15]: 0 to 29%; pest or weed control at 140 g/ha [2, 15]: 0 to 29%; pest or weed control at 70 g/ha [2, 16]: 85 to 94%; pest or weed control at 140 g/ha [2, 16]: 85 to 94%; pest or weed control at 70 g/ha [2, 17]: 0 to 29%; pest or weed control at 140 g/ha [2, 17]: 0 to 29%
2 | COC(=O)c1nc(-c2ccc(Cl)c(F)c2OC)c(F)c(N)c1Cl [Compound 39, methyl 4-amino-3-chloro-6-(4-chloro-3-fluoro-2-methoxyphenyl)-5-fluoropicolinate] | 45 to 59 | 95 to 100 | 0 to 29 | 0 to 29 | 0 to 29 | 0 to 29 | 0 to 29 | 0 to 29 | 0 to 29 | 75 to 84 | 0 to 29 | 0 to 29 | 30 to 44 | 30 to 44 | 0 to 29 | 60 to 74 | 95 to 100 | 95 to 100 | 95 to 100 | 95 to 100 | pest or weed control at 70 g/ha [2, 13]: 95 to 100%; pest or weed control at 140 g/ha [2, 13]: 95 to 100%; pest or weed control at 70 g/ha [2, 14]: 0 to 29%; pest or weed control at 140 g/ha [2, 14]: 0 to 29%; pest or weed control at 70 g/ha [2, 15]: 45 to 59%; pest or weed control at 140 g/ha [2, 15]: 45 to 59%; pest or weed control at 70 g/ha [2, 16]: 95 to 100%; pest or weed control at 140 g/ha [2, 16]: 95 to 100%; pest or weed control at 70 g/ha [2, 17]: 95 to 100%; pest or weed control at 140 g/ha [2, 17]: 95 to 100%
3 | COC(=O)c1nc(-c2ccc(Cl)c(F)c2C(=O)O)cc(N)c1Cl [Compound 91, 6-(4-amino-5-chloro-6-(methoxycarbonyl)pyridin-2-yl)-3-chloro-2-fluorobenzoic acid] | 0 to 29 | 0 to 29 | 0 to 29 | 0 to 29 | 0 to 29 | 0 to 29 | 0 to 29 | 0 to 29 | 0 to 29 | 0 to 29 | 0 to 29 | 0 to 29 | 0 to 29 | 0 to 29 | 0 to 29 | 0 to 29 | 0 to 29 | 0 to 29 | 0 to 29 | 0 to 29 | pest or weed control at 70 g/ha [2, 13]: 0 to 29%; pest or weed control at 140 g/ha [2, 13]: 0 to 29%; pest or weed control at 70 g/ha [2, 14]: 0 to 29%; pest or weed control at 140 g/ha [2, 14]: 0 to 29%; pest or weed control at 70 g/ha [2, 15]: 0 to 29%; pest or weed control at 140 g/ha [2, 15]: 0 to 29%; pest or weed control at 70 g/ha [2, 16]: 0 to 29%; pest or weed control at 140 g/ha [2, 16]: 0 to 29%; pest or weed control at 70 g/ha [2, 17]: 0 to 29%; pest or weed control at 140 g/ha [2, 17]: 0 to 29%
4 | COC(=O)c1nc(-c2ccc(I)c(F)c2C)cc(N)c1Cl [Compound 25, methyl 4-amino-3-chloro-6-(3-fluoro-4-Iodo-2-methylphenyl)picolinate] | 0 to 29 | 0 to 29 | 0 to 29 | 0 to 29 | 0 to 29 | 0 to 29 | 0 to 29 | 0 to 29 | 0 to 29 | 0 to 29 | 0 to 29 | 0 to 29 | 0 to 29 | 0 to 29 | 0 to 29 | 0 to 29 | 95 to 100 | 95 to 100 | 95 to 100 | 95 to 100 | pest or weed control at 70 g/ha [2, 13]: 60 to 74%; pest or weed control at 140 g/ha [2, 13]: 75 to 84%; pest or weed control at 70 g/ha [2, 14]: 85 to 94%; pest or weed control at 140 g/ha [2, 14]: 85 to 94%; pest or weed control at 70 g/ha [2, 15]: 0 to 29%; pest or weed control at 140 g/ha [2, 15]: 0 to 29%; pest or weed control at 70 g/ha [2, 16]: 60 to 74%; pest or weed control at 140 g/ha [2, 16]: 75 to 84%; pest or weed control at 70 g/ha [2, 17]: 0 to 29%; pest or weed control at 140 g/ha [2, 17]: 0 to 29%
